Measurements from ChEMBL document CHEMBL3611982, “Lowering the pKa of a bisimidazoline lead with halogen atoms results in improved activity and selectivity against Trypanosoma brucei in vitro” (Eur J Med Chem, 2015).
Activity calls are given as the source filed them. The rule behind the calls is not given here.

Tests used:
[1] = system: Trypanosoma brucei brucei; assay: Trypanocidal activity against diminazene/pentamidine/melaminophenyl arsenicals-resistant bloodstream form of Trypanosoma brucei brucei B48 trypomastigotes after 70 hrs by Alamar Blue assay; type: functional, organism-based; conditions: B48, 70 h
[2] = Selectivity index, ratio of CC50 for HEK293T cells to EC50 for wild type bloodstream form of Trypanosoma brucei s427 trypomastigotes; type: toxicity, cell-based, HEK-293T; conditions: human, read-out: Ratio CC50/EC50
[3] = Cytotoxicity against HEK293T cells after 30 hrs by Alamar Blue assay; type: cell-based, HEK-293T; conditions: human
[4] = system: Trypanosoma brucei brucei; assay: Trypanocidal activity against wild type bloodstream form of Trypanosoma brucei brucei s427 trypomastigotes after 70 hrs by Alamar Blue assay; type: functional, organism-based; conditions: s427, 70 h
[5] = system: Trypanosoma brucei brucei; assay: Resistant factor, ratio of EC50 for diminazene/pentamidine/melaminophenyl arsenicals-resistant Trypanosoma brucei brucei B48 to EC50 for wild type bloodstream form of Trypanosoma brucei brucei s427 trypomastigotes; type: functional
[6] = system: Trypanosoma brucei brucei; assay: Trypanocidal activity against Trypanosoma brucei brucei s427 at 5 uM measured over 1 hr by propidium iodide staining-based fluorimetric analysis; type: functional, organism-based
[7] = system: Trypanosoma brucei brucei; assay: Trypanocidal activity against Trypanosoma brucei brucei s427 at 2.5 uM measured over 2 hrs by propidium iodide staining-based fluorimetric analysis; type: functional, organism-based
[8] = system: Trypanosoma brucei brucei; assay: Trypanocidal activity against Trypanosoma brucei brucei s427 at >5 fold EC50 measured within 6 hrs by propidium iodide staining-based fluorimetric analysis; type: functional, organism-based
[9] = system: Trypanosoma brucei brucei; assay: Trypanocidal activity against Trypanosoma brucei brucei s427 measured within 6 hrs by propidium iodide staining-based fluorimetric analysis; type: functional, organism-based

| Structure (SMILES) | EC50 [1] | selectivity ratio [2] | CC50 at 30 h [3] | EC50 [4] | Ratio EC50 [5] | Activity [6] | Activity [7] | Activity [8] | Activity [9] |
| --- | --- | --- | --- | --- | --- | --- | --- | --- | --- |
| O=C(Nc1ccc(N=C2NCCN2)cc1F)c1ccc(N=C2NCCN2)cc1 | 2160 nM | > 120 | > 200000 nM | 1580 nM | 1.4 |  |  |  |  |
| O=C(Nc1ccc(N=C2NCCN2)cc1Cl)c1ccc(N=C2NCCN2)cc1 | 4350 nM | > 45 | > 200000 nM | 4220 nM | 1 |  |  |  |  |
| N=C(N)c1ccc(OCCCCCOc2ccc(C(=N)N)cc2)cc1 [PENTAMIDINE] | 550 nM |  |  | 0.11 nM | 3349 |  |  |  |  |
| O=C(Nc1ccc(N=C2NCCN2)cc1)c1ccc(N=C2NCCN2)cc1Cl | 2440 nM | > 150 | > 200000 nM | 1320 nM | 1.8 |  |  |  |  |
| O=C(Nc1ccc(N=C2NCCN2)cc1)c1ccc(N=C2NCCN2)c(Cl)c1 | 830 nM | > 200 | > 200000 nM | 970 nM | 0.9 |  |  |  |  |
| O=C(Nc1ccc(N=C2NCCN2)c(Cl)c1)c1ccc(N=C2NCCN2)cc1 | 360 nM | > 900 | > 200000 nM | 220 nM | 1.7 | Active |  |  |  |
| O=C(Nc1ccc(N=C2NCCN2)cc1)c1ccc(N=C2NCCN2)cc1F | 650 nM | > 420 | > 200000 nM | 470 nM | 1.4 | Active | Active |  |  |
| N=C(N)c1ccc(/N=N/Nc2ccc(C(=N)N)cc2)cc1 [DIMINAZENE] | 780 nM |  |  | 12 nM | 42 |  |  |  |  |
| O=C(Nc1ccc(NC2=NCCN2)cc1)c1ccc(NC2=NCCN2)cc1 | 870 nM | > 240 | > 200000 nM | 830 nM | 1.1 |  |  | Active | Dose-dependent effect |
| O=C(Nc1ccc(N=C2NCCN2)cc1)c1ccc(N=C2NCCN2)c(F)c1 | 690 nM | > 370 | > 200000 nM | 530 nM | 1.3 |  |  |  |  |
| O=C(Nc1ccc(N=C2NCCN2)c(F)c1)c1ccc(N=C2NCCN2)cc1 | 790 nM | > 340 | > 200000 nM | 580 nM | 1.4 |  |  |  |  |
| O=C(Nc1ccc(N=C2NCCN2)cn1)c1ccc(N=C2NCCN2)cc1 | 3230 nM | > 190 | > 200000 nM | 1040 nM | 3.1 |  |  |  |  |
